# According to patent publication US20240368127A1, “HSD17B13 INHIBITORS AND USES THEREOF” (FL2022-001, Inc., priority 2021, published 2024):
# Counter-ions that a name gives are not always drawn.
# Target: T1, Recombinant human HSD17B13 enzyme (Homo sapiens, UniProt Q7Z5P4)
# T1 sequence (Q7Z5P4 20-300): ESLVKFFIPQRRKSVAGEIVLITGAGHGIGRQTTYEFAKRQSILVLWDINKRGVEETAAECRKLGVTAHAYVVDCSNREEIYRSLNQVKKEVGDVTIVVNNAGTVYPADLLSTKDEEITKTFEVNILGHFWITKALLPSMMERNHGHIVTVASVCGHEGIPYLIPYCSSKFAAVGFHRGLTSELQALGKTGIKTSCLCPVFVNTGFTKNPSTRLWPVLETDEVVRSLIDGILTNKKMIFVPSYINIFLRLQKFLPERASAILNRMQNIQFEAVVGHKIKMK
# Test: HSD17b13 NAD(P)H-Glo biochemical assay
# Settings: 50 μM estradiol, 1 mM NAD+, 37° C. for 3 hours; read-out: HSD17β13 IC50
# Procedure, shortened: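 Enzyme preincubated with inhibitor 20 min at RT in 20 mM Tris pH7.4, 0.002% Tween-20, 0.02% BSA, then reacted 3 h at 37° C with 50 μM estradiol and 1 mM NAD+ (final). NADH formation read by NAD(P)H-Glo luminescence after 1 h at RT.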
row,IC50 [nM],SMILES
1,≤ 100,"Cn1nc(-c2cc(F)c(F)c(O)c2F)c2cnc(N3CCN(S(C)(=O)=O)C[C@H]3Cc3ccccc3)nc21 [Compound 11.09, (R)-3-(6-(2-Benzyl-4-(methylsulfonyl)piperazin-1-yl)-1-methyl-1H-pyrazolo[3,4-d]pyrimidin-3-yl)-2,5,6-trifluorophenol]"
2,≤ 100,"Cn1nc(-c2cc(C(F)(F)F)c(F)c(O)c2F)c2cnc(N3CCNC[C@H]3Cc3ccccc3)nc21 [Compound 5.31, (R)-3-(6-(2-Benzylpiperazin-1-yl)-1-methyl-1H-pyrazolo[3,4-d]pyrimidin-3-yl)-2,6-difluoro-5-(trifluoromethyl)phenol]"
3,≤ 100,"Cn1nc(-c2cc(C(F)(F)F)c(F)c(O)c2F)c2cnc(N3CCN(S(C)(=O)=O)C[C@H]3Cc3ccccc3)nc21 [Compound 5, (R)-3-(6-(2-Benzyl-4-(methylsulfonyl)piperazin-1-yl)-1-methyl-1H-pyrazolo[3,4-d]pyrimidin-3-yl)-2,6-difluoro-5-(trifluoromethyl)phenol]"
4,≤ 100,"CN(C)c1nn(-c2cc(C(F)(F)F)c(F)c(O)c2F)c2ccc(N3CCN(S(C)(=O)=O)C[C@H]3Cc3ccccc3)cc12 [Compound 2.25, (R)-3-(5-(2-Benzyl-4-(methylsulfonyl)piperazin-1-yl)-3-(dimethylamino)-1H-indazol-1-yl)-2,6-difluoro-5-(trifluoromethyl)phenol]"
5,≤ 100,"CC(=O)N1CCN(c2ncc3c(-c4cc(C(F)(F)F)c(F)c(O)c4F)nn(C)c3n2)C[C@@H]1Cc1ccccc1 [Compound 6.04, (S)-1-(2-Benzyl-4-(3-(2,4-difluoro-3-hydroxy-5-(trifluoromethyl)phenyl)-1-methyl-1H-pyrazolo[3,4-d]pyrimidin-6-yl)piperazin-1-yl)ethan-1-one]"
6,≤ 100,"Cn1nc(-c2cc(C(F)(F)F)c(F)c(O)c2F)c2cnc(N3CCOCC3CC3CCC3)nc21 (stereo not shown) [Compound 5.10, 3-(6-(3-(Cyclobutylmethyl)morpholino)-1-methyl-1H-pyrazolo[3,4-d]pyrimidin-3-yl)-2,6-difluoro-5-(trifluoromethyl)phenol]"
7,≤ 100,"Cc1nn(-c2cc(C(F)(F)F)c(F)c(O)c2F)c2cnc(N3CCN(S(C)(=O)=O)[C@H](Cc4ccccc4)C3)cc12 [Compound 2.07, (R)-3-(5-(3-Benzyl-4-(methylsulfonyl)piperazin-1-yl)-3-methyl-1H-pyrazolo[3,4-c]pyridin-1-yl)-2,6-difluoro-5-(trifluoromethyl)phenol]"
8,≤ 100,"Cn1nc(-c2cc(C(F)(F)F)c(F)c(O)c2F)c2cnc(N3CCOCC3CC3CCCCC3)nc21 (stereo not shown) [Compound 15.03, 3-(6-(3-(Cyclohexylmethyl)morpholino)-1-methyl-1H-pyrazolo[3,4-d]pyrimidin-3-yl)-2,6-difluoro-5-(trifluoromethyl)phenol]"
9,≤ 100,"Cn1nc(-c2cc(C(F)(F)F)c(F)c(O)c2F)c2cnc(N3CCC[C@H]3Cc3ccccc3)nc21 [Compound 5.17, (S)-3-(6-(2-Benzylpyrrolidin-1-yl)-1-methyl-1H-pyrazolo[3,4-d]pyrimidin-3-yl)-2,6-difluoro-5-(trifluoromethyl)phenol]"
10,≤ 100,"Cn1nc(-c2cc(O)c(F)c(F)c2C#N)c2cnc(N3CCN(S(C)(=O)=O)C[C@H]3Cc3ccccc3)nc21 [Compound 11.15, (R)-6-(6-(2-Benzyl-4-(methylsulfonyl)piperazin-1-yl)-1-methyl-1H-pyrazolo[3,4-d]pyrimidin-3-yl)-2,3-difluoro-4-hydroxybenzonitrile]"
11,≤ 100,"Cn1nc(-c2cc(C(F)(F)F)c(F)c(O)c2F)c2cnc(N3CCO[C@@H](Cc4cccnc4)C3)nc21 [Compound 12.01, (S)-2,6-Difluoro-3-(1-methyl-6-(2-(pyridin-3-ylmethyl)morpholino)-1H-pyrazolo[3,4-d]pyrimidin-3-yl)-5-(trifluoromethyl)phenol]"
12,≤ 100,"Cn1nc(-c2cc(C(F)(F)F)c(F)c(O)c2F)c2cnc(N3CCN(S(C)(=O)=O)CC3CC3CCCCC3)nc21 (stereo not shown) [Compound 15, 3-(6-(2-(Cyclohexylmethyl)-4-(methylsulfonyl)piperazin-1-yl)-1-methyl-1H-pyrazolo[3,4-d]pyrimidin-3-yl)-2,6-difluoro-5-(trifluoromethyl)phenol]"
13,≤ 100,"COC(=O)[C@@H]1COCCN1c1ncc2c(-c3cc(C(F)(F)F)c(F)c(O)c3F)nn(C)c2n1 [Compound 11.23, Methyl (S)-4-(3-(2,4-difluoro-3-hydroxy-5-(trifluoromethyl)phenyl)-1-methyl-1H-pyrazolo[3,4-d]pyrimidin-6-yl)morpholine-3-carboxylate]"
14,≤ 100,"Cn1nc(-c2cc(C(F)(F)F)c(F)c(O)c2F)c2cnc(N3CCOCC3Cc3ccccc3)nc21 (stereo not shown) [Compound 5.03, 3-(6-(3-Benzylmorpholino)-1-methyl-1H-pyrazolo[3,4-d]pyrimidin-3-yl)-2,6-difluoro-5-(trifluoromethyl)phenol]"
15,100 to 1000,"Cc1nn(-c2cc(C(F)(F)F)c(F)c(O)c2F)c2cnc(N3CCN(S(C)(=O)=O)C[C@@H]3Cc3ccccc3)cc12 [Compound 2.03, (S)-3-(5-(2-Benzyl-4-(methylsulfonyl)piperazin-1-yl)-3-methyl-1H-pyrazolo[3,4-c]pyridin-1-yl)-2,6-difluoro-5-(trifluoromethyl)phenol]"
16,≤ 100,"CN1CCN(c2ncc3c(-c4cc(C(F)(F)F)c(F)c(O)c4F)nn(C)c3n2)[C@H](Cc2ccccc2)C1 [Compound 5.26, (R)-3-(6-(2-Benzyl-4-methylpiperazin-1-yl)-1-methyl-1H-pyrazolo[3,4-d]pyrimidin-3-yl)-2,6-difluoro-5-(trifluoromethyl)phenol]"
17,≤ 100,"CS(=O)(=O)N1CCN(c2ncc3c(cnn3-c3cc(O)c(F)c(C(F)(F)F)c3)n2)[C@H](Cc2ccccc2)C1 [Compound 2.36, (R)-5-(5-(2-Benzyl-4-(methylsulfonyl)piperazin-1-yl)-1H-pyrazolo[4,3-d]pyrimidin-1-yl)-2-fluoro-3-(trifluoromethyl)phenol]"
18,1000 to 30000,"Cc1c2cc(N3CCN(S(C)(=O)=O)C[C@H]3Cc3ccccc3)ccc2nn1-c1cc(O)cc(C(F)(F)F)n1 [Compound 2.30, (R)-2-(5-(2-Benzyl-4-(methylsulfonyl)piperazin-1-yl)-3-methyl-2H-indazol-2-yl)-6-(trifluoromethyl)pyridin-4-ol]"
19,100 to 1000,"Cn1nc(-c2cc(C(F)(F)F)c(F)c(O)c2F)c2cnc(C3CCCN(Cc4ccccc4)C3)nc21 (stereo not shown) [Compound 14.01, 3-(6-(1-Benzylpiperidin-3-yl)-1-methyl-1H-pyrazolo[3,4-d]pyrimidin-3-yl)-2,6-difluoro-5-(trifluoromethyl)phenol hydrochloride]"
20,≤ 100,"Cn1nc(-c2cc(C(F)(F)F)c(F)c(O)c2F)c2cnc(N3CCOC(Cc4ccccc4)C3)nc21 (stereo not shown) [Compound 5.02, 3-(6-(2-Benzylmorpholino)-1-methyl-1H-pyrazolo[3,4-d]pyrimidin-3-yl)-2,6-difluoro-5-(trifluoromethyl)phenol]"
21,≤ 100,"Cc1cccc(C[C@H]2CN(c3ncc4c(-c5cc(C(F)(F)F)c(F)c(O)c5F)nn(C)c4n3)CCO2)c1 [Compound 12.07, (S)-2,6-Difluoro-3-(1-methyl-6-(2-(3-methylbenzyl)morpholin)-1H-pyrazolo[3,4-d]pyrimidin-3-yl)-5-(trifluoromethyl)phenol]"
22,≤ 100,CC(=O)c1nn(-c2cc(C(F)(F)F)c(F)c(O)c2F)c2ccc(N3CCN(S(C)(=O)=O)C[C@H]3Cc3ccccc3)cc12 [Compound 2.08]
23,≤ 100,"Cn1nc(-c2cc(C(F)(F)F)c(F)c(O)c2F)c2cnc(N3CC[C@@H]3Cc3ccccc3)nc21 [Compound 15.11, (S)-3-(6-(2-Benzylazetidin-1-yl)-1-methyl-1H-pyrazolo[3,4-d]pyrimidin-3-yl)-2,6-difluoro-5-(trifluoromethyl)phenol]"
24,≤ 100,"Cn1nc(-c2cc(C(F)(F)F)c(F)c(O)c2F)c2cnc(N3CCOCC3CC3CC3)nc21 (stereo not shown) [Compound 5.01, 3-(6-(3-(Cyclopropylmethyl)morpholino)-1-methyl-1H-pyrazolo[3,4-d]pyrimidin-3-yl)-2,6-difluoro-5-(trifluoromethyl)phenol]"
25,≤ 100,"Cn1nc(-c2cc(C(F)(F)F)c(F)c(O)c2F)c2cnc(N3CCNC(=O)C3Cc3ccccc3)nc21 (stereo not shown) [Compound 5.13, 3-Benzyl-4-(3-(2,4-difluoro-3-hydroxy-5-(trifluoromethyl)phenyl)-1-methyl-1H-pyrazolo[3,4-d]pyrimidin-6-yl)piperazin-2-one]"
26,≤ 100,"Cc1nn(-c2cc(C(F)(F)F)c(F)c(O)c2F)c2cc(F)c(N3CCN(S(C)(=O)=O)C[C@H]3Cc3ccccc3)nc12 [Compound 2.33, (R)-3-(5-(2-Benzyl-4-(methylsulfonyl)piperazin-1-yl)-6-fluoro-3-methyl-1H-pyrazolo[4,3-b]pyridin-1-yl)-2,6-difluoro-5-(trifluoromethyl)phenol]"
27,≤ 100,"Cn1nc(-c2cc(C(F)(F)F)c(F)c(O)c2F)c2cnc(N3CCOC[C@H]3Cc3ccc(F)cc3)nc21 [Compound 5.23, (R)-2,6-Difluoro-3-(6-(3-(4-fluorobenzyl)morpholino)-1-methyl-1H-pyrazolo[3,4-d]pyrimidin-3-yl)-5-(trifluoromethyl)phenol]"
28,≤ 100,"Cc1nn(-c2cc(C(F)(F)F)c(F)c(O)c2F)c2cnc(N3CCOC(Cc4ccccc4)C3)cc12 (stereo not shown) [Compound 2.04, 3-(5-(2-Benzylmorpholino)-3-methyl-1H-pyrazolo[3,4-c]pyridin-1-yl)-2,6-difluoro-5-(trifluoromethyl)phenol]"
